Experimental data reported in US20230000876A1, “TREATING CANCERS WITH A CYCLIN-DEPENDENT KINASE INHIBITOR” (Nuvation Bio Inc., priority 2021, published 2023).

What was measured:
H1975-luc = assay: CellTiter-Glo anti-proliferation assay, H1975-luc; type: cell-based
Protocol: (§1) The anti-proliferation effect of 2 compounds (the compound of formula (I) and temozolomide) in 7 CNS metastasis cell lines (MOLT-4-luc, Nalm-6-luc, NCI-H460-luc, ACHN-luc2, PC-9-luc, H1975-luc, and KM12-luc) was evaluated.
(§2) The plating of cells and compound treatments are shown below in the plate map (Table 12). One plate was needed for the test of 2 compounds (the compound of formula (I) and temozolomide) in one cell line. The compound of formula (I) was tested from 10 μM, 3-fold serial dilution. Temozolomide was tested from 100 μM, 3-fold serial dilution.
(§3) All the cell lines were maintained in culture conditions at 37° C. in an atmosphere with 5% CO2 in air. The tumor cells were routinely subcultured. The cells growing in an exponential growth phase were harvested and counted for plating.
(§4) Cells were counted by haemocytometer with Trypan blue staining. Next, 135 μL of cell suspension were plated into the assay plates according to the plate map and 135 μL of assay medium into the blank wells. The plates were incubated at 37° C., 5% CO2, 95% air and 100% relative humidity overnight.
(§5) 4.4.4 Compound Plate (10×) Preparation and Compound Treatment • 10× concentrate compound plate preparation: Add 198 μL of assay medium into each well of the V-bottom plate; then transfer 2 μL of the stock compound solution of each concentration from the stock plate. Add 2 μL of DMSO into the Blank and Control wells. Pipette up and down to mix well. This V-plate is designated as the 10× concentrate compound plate. • For day 0 plate, add 15 μL of the DMSO-medium into the Control wells. The final DMSO concentration was 0.1%. Then directly proceed to cell viability assay. • For assay plate, add 15 μL of the compound-medium of each well from the 10× concentrate compound plate into the cells in 96-well assay plate according to the plate map. Add 15 μL of the DMSO-medium into the Blank and Control wells. The final DMSO concentration was 0.1%. • Return the assay plate into incubator and incubate for 6 days.
(§6) The procedures were performed according to the Promega CellTiter-Glo Luminescent Cell Viability Assay Kit manual (Promega-G7573). • The CellTiter-Glo buffer was thawed and equilibrated to room temperature prior to use. • CellTiter-Glo Substrate was equilibrated to room temperature prior to use. • The entire liquid volume of CellTiter-Glo Buffer was transferred into the amber bottle containing CellTiter-Glo Substrate to reconstitute the lyophilized enzyme/substrate mixture. This forms the CellTiter-Glo Reagent. • The contents were mixed by gently vortexing to obtain a homogeneous solution. • The plate was equilibrated and its contents to room temperature for approximately 30 minutes. 75 μL (equal to the half volume of culture medium present in each well) CellTiter-Glo • Reagent was added in each well. Plates were covered with aluminum foil to protect from light. • The contents were mixed for 2 minutes on an orbital shaker to induce cell lysis. • The plate was incubated at room temperature for 20 minutes to stabilize luminescent signal. • Record luminescence on the 2104 EnVision plate reader.
(§7) Inhibition rate (IR) of the tested compounds was determined by the following formula: IR (%)=(1−(RLU compound−RLU day0)/(RLU control−RLU day0))*100%. The inhibitions of different dose of compound were calculated in Excel file, and then were used to plot inhibition curves and evaluate related parameters, such as Min (%), Max (%) and GI50. The data were interpreted by GraphPad Prism.

Nalm-6-luc = assay: CellTiter-Glo anti-proliferation assay, Nalm-6-luc; type: cell-based
Protocol: as §1, §2, §3, §4, §5, §6, §7

SK-MEL-5 = assay: Cell viability assay, melanoma cell line SK-MEL-5; type: cell-based
Protocol: as §5
as §6, with “This forms the CellTiter-Glo Reagent. • The contents were mixed by gently vortexing to obtain a homogeneous solution. • The plate was equilibrated and its contents to room temperature for approximately 30 minutes. 75 μL (equal to the half volume of culture medium present in each well) CellTiter-Glo • Reagent was added in each well.” left out
as §7, with “The data were interpreted by GraphPad Prism.” left out

SK-MEL-31 = assay: Cell viability assay, melanoma cell line SK-MEL-31; type: cell-based
Protocol: as §5
as §6, with “This forms the CellTiter-Glo Reagent. • The contents were mixed by gently vortexing to obtain a homogeneous solution. • The plate was equilibrated and its contents to room temperature for approximately 30 minutes. 75 μL (equal to the half volume of culture medium present in each well) CellTiter-Glo • Reagent was added in each well.” left out
as §7, with “The data were interpreted by GraphPad Prism.” left out

[1] = tested on: tumor fragments from a mCRPC patient; assay: Enzalutamide-resistant patient-derived xenograft prostate model (ST2347 PDX); type: in vivo, male Balb/c nude mice
[2] = tested on: 7 CNS metastasis cell lines (MOLT-4-luc, Nalm-6-luc, NCI-H460-luc, ACHN-luc2, PC-9-luc, H1975-luc, KM12-luc); assay: Anti-proliferation assay, 7 CNS metastasis cell lines taken together; type: cell-based
Protocol: as §1
The plating of cells and compound treatments are shown below in the plate map (Table 12). One plate was needed for the test of 2 compounds (the compound of formula (I) and temozolomide) in one cell line. The compound of formula (I) was tested from 10 μM, 3-fold serial dilution. Temozolomide was tested from 100 μM, 3-fold serial dilution. […]
as §6, with “This forms the CellTiter-Glo Reagent. • The contents were mixed by gently vortexing to obtain a homogeneous solution. • The plate was equilibrated and its contents to room temperature for approximately 30 minutes. 75 μL (equal to the half volume of culture medium present in each well) CellTiter-Glo • Reagent was added in each well.” left out, “reader. […]” for “reader.”

[3] = 144 h, 6 days incubation, read-out: Absolute GI50
[4] = inhibition rate, 6 days, Compound (I) from 10 μM, temozolomide from 100 μM, 3-fold, 9 points

## CC(C)N1CCOc2c(F)cc(-c3nc(Nc4ccc(C5CCN(C)CC5)cn4)ncc3F)cc21 [Compound (I), 5-fluoro-4-(8-fluoro-4-isopropyl-3,4-dihydro-2H-benzo[b][1,4]oxazin-6-yl)-N-(5-(1-methylpiperidin-4-yl)pyridin-2-yl)pyrimidin-2-amine]
H1975-luc; [3]
  GI50: 226 nM
H1975-luc; [4]
  Max (%): 105.8%
  Min (%): −2.3%
Nalm-6-luc; [3]
  GI50: 154 nM
Nalm-6-luc; [4]
  Max (%): 105.6%
  Min (%): −20.8%
SK-MEL-5; Homo sapiens, SK-MEL-5, read-out: Absolute GI50
  GI50: 1240 nM
SK-MEL-5; inhibition rate
  Max (%): 116.12%
  Min (%): −2.91%
SK-MEL-31; inhibition rate
  Max (%): 125.31%
  Min (%): −0.53%
SK-MEL-31; read-out: Absolute GI50
  GI50: 1230 nM
[1]; 30 mg/kg oral QD
  Antitumor activity over the course of the treatment: statistically significant antitumor activity
  Tumor regression: tumor regression in all cases
[1]; day 39 of treatment
  Mice with 100% reduction in tumor volume: one
  Mice with >50% reduction in tumor volume: 3 of 10
[2]; current testing concentrations
  Inhibitory effect in cell viability assay: significant inhibitory effect
[2]; read-out: Absolute GI50 values, range over 7 cell lines
  GI50: 47 to 2790 nM
